In paper PMC6178619, “Arylvinylpiperazine Amides, a New Class of Potent Inhibitors Targeting QcrB of Mycobacterium tuberculosis” (mBio, 2018):

Experiments:
Assay type in all cases: cell-based, Mycobacterium tuberculosis
[1] = test system: H37Rv Δcyd KO with a QcrB(A317V) mutation
[2] = test system: LPZS-resistant strain of M. tuberculosis H37Rv (QcrB L176P)
[3] = test system: AX-resistant mutants of M. tuberculosis H37Rv (QcrB S182P, M342V, M342I)
[4] = test system: AX-resistant mutants of M. tuberculosis H37Rv
[5] = test system: Q203-resistant strain of M. tuberculosis H37Rv (QcrB T313A)

Row | SMILES | OCR change from basal on compound addition [1] | Cross-resistance [2] | Increase in MIC compared to parental strain H37Rv [3] [fold] | Intracellular ATP level [4] | Cross-resistance [5]
1 | O=C(/C=C/c1cccs1)N1CCN(Cc2ccc3c(c2)OCO3)CC1 [AX-35, (E)-1-(4-(Benzo[d][1,3]dioxol-5-ylmethyl)piperazin-1-yl)-3-(thiophen-2-yl)prop-2-en-1-one] | decreases | cross-resistant | 50 | essentially unaffected | cross-resistant
2 | O=C(/C=C/c1ccsc1)N1CCN(Cc2ccc3c(c2)OCO3)CC1 [AX-36, (E)-1-(4-(Benzo[d][1,3]dioxol-5-ylmethyl)piperazin-1-yl)-3-(thiophen-3-yl)prop-2-en-1-one] | – | cross-resistant | 50 | essentially unaffected | cross-resistant
3 | CCc1nc2ccc(Cl)cn2c1C(=O)NCc1ccc(N2CCC(c3ccc(OC(F)(F)F)cc3)CC2)cc1 [Compound Q203, reference compound] | unaffected | – | – | depleted | –
4 | COc1nc2ccc(Br)cc2cc1[C@@H](c1ccccc1)[C@@](O)(CCN(C)C)c1cccc2ccccc12 [BDQ, bedaquiline, reference compound] | – | – | – | depleted | –
